Results: PubChem BioAssay AID1963437 (Molecular Pharmacology Branch, DTP, NCI, 2024)

Test system: OVCAR-8 complex spheroid, growth inhibition
Experiment: Anticancer human tumor OVCAR-8 cell line growth inhibition [Asc];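 also: spheroids exposed to agents for 7 days before readout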;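 as to viability, T/C: percent viability relative to DMSO vehicle wells taken as 100%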
Details: for IC50: curve of first compound; for viability, T/C: stronger effect = lower value
Outline: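 Concentration series start at each agent's clinical Cmax, or at 10 microM when none is established, and drop in half-log steps; agents are applied alone or together to complex spheroids built with HUVEC and hMSC.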

## CCN1CCN(Cc2ccc(Nc3ncc(F)c(-c4cc(F)c5nc(C)n(C(C)C)c5c4)n3)nc2)CC1 + CNC(C)C(=O)NC1CN(S(=O)(=O)c2cccc(S(=O)(=O)N3CCC4CCC(C(=O)NC(c5ccccc5)c5ccccc5)N4C(=O)C(NC(=O)C(C)NC)C3)c2)CCC2CCC(C(=O)NC(c3ccccc3)c3ccccc3)N2C1=O
Second compound 0.00316 µM
  IC50: > 1 µM
Second compound 0.01 µM
  IC50: > 1 µM
Second compound 0.0316 µM
  IC50: > 1 µM
Second compound 0.1 µM
  IC50: > 1 µM
Second compound 0.316 µM
  IC50: > 1 µM
Second compound 1 µM
  IC50: > 1 µM
Second compound 0.00316 µM, first compound 0.00316 µM
  viability, T/C: 102%
Second compound 0.00316 µM, first compound 0.01 µM
  viability, T/C: 95.7%
Second compound 0.00316 µM, first compound 0.0316 µM
  viability, T/C: 96%
Second compound 0.00316 µM, first compound 0.1 µM
  viability, T/C: 85.9%
Second compound 0.00316 µM, first compound 0.316 µM
  viability, T/C: 111%
Second compound 0.00316 µM, first compound 1 µM
  viability, T/C: 114%
Second compound 0.01 µM, first compound 0.00316 µM
  viability, T/C: 91.3%
Second compound 0.01 µM, first compound 0.01 µM
  viability, T/C: 86.7%
Second compound 0.01 µM, first compound 0.0316 µM
  viability, T/C: 85%
Second compound 0.01 µM, first compound 0.1 µM
  viability, T/C: 85.3%
Second compound 0.01 µM, first compound 0.316 µM
  viability, T/C: 99.9%
Second compound 0.01 µM, first compound 1 µM
  viability, T/C: 148%
Second compound 0.0316 µM, first compound 0.00316 µM
  viability, T/C: 90.6%
Second compound 0.0316 µM, first compound 0.01 µM
  viability, T/C: 88.5%
Second compound 0.0316 µM, first compound 0.0316 µM
  viability, T/C: 84.7%
Second compound 0.0316 µM, first compound 0.1 µM
  viability, T/C: 81.2%
Second compound 0.0316 µM, first compound 0.316 µM
  viability, T/C: 91.2%
Second compound 0.0316 µM, first compound 1 µM
  viability, T/C: 116%
Second compound 0.1 µM, first compound 0.00316 µM
  viability, T/C: 84%
Second compound 0.1 µM, first compound 0.01 µM
  viability, T/C: 78%
Second compound 0.1 µM, first compound 0.0316 µM
  viability, T/C: 83.9%
Second compound 0.1 µM, first compound 0.1 µM
  viability, T/C: 92.5%
Second compound 0.1 µM, first compound 0.316 µM
  viability, T/C: 96.7%
Second compound 0.1 µM, first compound 1 µM
  viability, T/C: 111%
Second compound 0.316 µM, first compound 0.00316 µM
  viability, T/C: 75.6%
Second compound 0.316 µM, first compound 0.01 µM
  viability, T/C: 72%
Second compound 0.316 µM, first compound 0.0316 µM
  viability, T/C: 82.5%
Second compound 0.316 µM, first compound 0.1 µM
  viability, T/C: 74.7%
Second compound 0.316 µM, first compound 0.316 µM
  viability, T/C: 102%
Second compound 0.316 µM, first compound 1 µM
  viability, T/C: 111%
Second compound 1 µM, first compound 0.00316 µM
  viability, T/C: 79.8%
Second compound 1 µM, first compound 0.01 µM
  viability, T/C: 72.3%
Second compound 1 µM, first compound 0.0316 µM
  viability, T/C: 88.1%
Second compound 1 µM, first compound 0.1 µM
  viability, T/C: 82.6%
Second compound 1 µM, first compound 0.316 µM
  viability, T/C: 91.8%
Second compound 1 µM, first compound 1 µM
  viability, T/C: 104%

## NC(=O)C(=Cn1cnc(-c2cc(C(F)(F)F)cc(C(F)(F)F)c2)n1)c1cncnc1 + CNC(C)C(=O)NC1CN(S(=O)(=O)c2cccc(S(=O)(=O)N3CCC4CCC(C(=O)NC(c5ccccc5)c5ccccc5)N4C(=O)C(NC(=O)C(C)NC)C3)c2)CCC2CCC(C(=O)NC(c3ccccc3)c3ccccc3)N2C1=O
Second compound 0.00316 µM
  IC50: 0.261 µM
Second compound 0.01 µM
  IC50: > 0.3 µM
Second compound 0.0316 µM
  IC50: > 0.3 µM
Second compound 0.1 µM
  IC50: 0.12 µM
Second compound 0.316 µM
  IC50: 0.0732 µM
Second compound 1 µM
  IC50: 0.0679 µM
Second compound 0.00316 µM, first compound 0.000949 µM
  viability, T/C: 140%
Second compound 0.00316 µM, first compound 0.003 µM
  viability, T/C: 111%
Second compound 0.00316 µM, first compound 0.00949 µM
  viability, T/C: 110%
Second compound 0.00316 µM, first compound 0.03 µM
  viability, T/C: 153%
Second compound 0.00316 µM, first compound 0.0949 µM
  viability, T/C: 95.6%
Second compound 0.00316 µM, first compound 0.3 µM
  viability, T/C: 43.8%
Second compound 0.01 µM, first compound 0.000949 µM
  viability, T/C: 123%
Second compound 0.01 µM, first compound 0.003 µM
  viability, T/C: 129%
Second compound 0.01 µM, first compound 0.00949 µM
  viability, T/C: 110%
Second compound 0.01 µM, first compound 0.03 µM
  viability, T/C: 123%
Second compound 0.01 µM, first compound 0.0949 µM
  viability, T/C: 91.2%
Second compound 0.01 µM, first compound 0.3 µM
  viability, T/C: 54%
Second compound 0.0316 µM, first compound 0.000949 µM
  viability, T/C: 117%
Second compound 0.0316 µM, first compound 0.003 µM
  viability, T/C: 114%
Second compound 0.0316 µM, first compound 0.00949 µM
  viability, T/C: 112%
Second compound 0.0316 µM, first compound 0.03 µM
  viability, T/C: 129%
Second compound 0.0316 µM, first compound 0.0949 µM
  viability, T/C: 74.5%
Second compound 0.0316 µM, first compound 0.3 µM
  viability, T/C: 48.4%
Second compound 0.1 µM, first compound 0.000949 µM
  viability, T/C: 122%
Second compound 0.1 µM, first compound 0.003 µM
  viability, T/C: 91.6%
Second compound 0.1 µM, first compound 0.00949 µM
  viability, T/C: 121%
Second compound 0.1 µM, first compound 0.03 µM
  viability, T/C: 138%
Second compound 0.1 µM, first compound 0.0949 µM
  viability, T/C: 55.3%
Second compound 0.1 µM, first compound 0.3 µM
  viability, T/C: 29.5%
Second compound 0.316 µM, first compound 0.000949 µM
  viability, T/C: 109%
Second compound 0.316 µM, first compound 0.003 µM
  viability, T/C: 115%
Second compound 0.316 µM, first compound 0.00949 µM
  viability, T/C: 113%
Second compound 0.316 µM, first compound 0.03 µM
  viability, T/C: 122%
Second compound 0.316 µM, first compound 0.0949 µM
  viability, T/C: 31.3%
Second compound 0.316 µM, first compound 0.3 µM
  viability, T/C: 7.46%
Second compound 1 µM, first compound 0.000949 µM
  viability, T/C: 97%
Second compound 1 µM, first compound 0.003 µM
  viability, T/C: 103%
Second compound 1 µM, first compound 0.00949 µM
  viability, T/C: 109%
Second compound 1 µM, first compound 0.03 µM
  viability, T/C: 127%
Second compound 1 µM, first compound 0.0949 µM
  viability, T/C: 25.8%
Second compound 1 µM, first compound 0.3 µM
  viability, T/C: 4.16%
